Experimental data reported in paper PMC7226839, “Modulation of STAT3 Signaling, Cell Redox Defenses and Cell Cycle Checkpoints by β-Caryophyllene in Cholangiocarcinoma Cells: Possible Mechanisms Accounting for Doxorubicin Chemosensitization and Chemoprevention” (Cells, 2020).
Counter-ions that a name gives are not always drawn. Like-named read-outs stand apart in the source and are kept apart here.

Columns and labels:
[1] = test system: glutathione in Mz-ChA-1 cholangiocarcinoma cells; assay: HPLC determination of intracellular GSH and GSSG; format: cell-based, human
Description: Intracellular levels of reduced (GSH) and oxidized (GSSG) glutathione were measured by HPLC-UV, as previously described. Briefly, after treatments with β-caryophyllene (50 µM) and doxorubicin (20 µM), the harvested cells (1 × 10^6 cells) were suspended in 10% ice-cold TCA and centrifuged for 15 min at 9000× g, then supernatant was collected and GSH and GSSG measured by HPLC with UV detection at 215 nm. The separation was achieved using a InfinityLab poroshell 120 EC-C18 column (3 × 150 mm, 2.7 μm) at a flow rate of 0.8 mL/min, using the following elution gradient: 0–3 min 100% A + 0% B, 3–10 min from 100% A to 100% B. The mobile phase A contained 0.1% trifluoroacetic acid in water, whereas mobile phase B was 0.1% trifluoroacetic acid in water/acetonitrile (93:7). Under our chromatographic conditions, retention times of GSH and GSSG were 2.58 min and 7.01 min, respectively.

[2] = test system: H69 noncancerous cholangiocytes; assay: Annexin-V-Cy3/CFDA flow cytometry (apoptotic and viable cells); format: cell-based; details: for inhibition of viable cells (CF fluorescence): H69, 2 h and 24 h, maximum
Description: (§1) Apoptosis extent was evaluated by Annexin-V staining (Annexin V Apoptosis detection kit, Santa Cruz Biotechnology, DBA, Milan, Italy), which is known to specifically binds phosphatidylserine, a […] which is normally embedded in the inner leaflet of plasma membrane and externalized during apoptosis, as a result of the membrane changes. Therefore, apoptotic cells can be directly detected through their staining with the fluorochrome-conjugated Annexin V. The analysis was performed by both fluorescence microscopy and flow cytometry in order to both visualize the event and to achieve a quick and accurate quantification of apoptotic cells.
For flow cytometry analysis, the cells (1 × 10^6 cells) were grown in 6-well plates, treated with β-caryophyllene (50 µM) and doxorubicin (20 µM), alone and in combination for the required time exposure, then collected by trypsinization and resuspended in PBS in the presence of the fluorochrome Annexin-V-Cy3 (4 μg/mL in cell suspension). In order to detect viable cells, the nonfluorescent probe carboxyfluorescein diacetate (CFDA; 2 μg/mL in cell suspension), hydrolyzed in living cells by esterases to its fluorescent carboxyfluorescein metabolite (CF), was included too. For each sample, the mean fluorescence of Annexin-V-Cy3 (excitation/emission at 543/570 nm, respectively) and CF (excitation/emission at 492/514 nm, respectively) in 50,000 cells was measured using a BD Accuri^TM C6 flow cytometer, FL-2 and FL-1 channels respectively (BD Biosciences, Milan, Italy). Although standard flow cytometry apoptosis assays use Annexin V-FITC, we chosen the conjugate with Cy3 in order to avoid the overlapping in the excitation wavelength of annexin V-FITC and CF, which could interfere with the analysis. Cells undergoing apoptosis were also sorted by their typical forward- and side scatter (FSC-SSC) pattern, i.e., increased SSC and decreased FSC, respect to the viable cells. Multiparameter analysis and gating of forward and side scatter as well as fluorescence detection were performed using a BD Accuri^TM C6 Software version 1.0.264.21 (BD Biosciences, Milan, Italy).

[3] = test system: H69 noncancerous cholangiocytes; assay: Cell cycle analysis (PI flow cytometry); format: cell-based; details: H69, 24 h
Description: (§2) Analysis of cell cycle progression was performed by applying a one parameter flow cytometric method, in which cell cycle distribution was evaluated on the basis of DNA content. Briefly, after treatments, the harvested cells (about 1 × 10^6 cells) were fixed in ice cold 70% ethanol and stored for at least 2 h at 4 °C. Thereafter, the ethanol-suspended cells were separated by centrifugation, rinsed in PBS, then resuspended in a propidium iodide (PI) staining solution, containing 0.1% v/v Triton X-100, 10 μg/mL PI and 100 μg/mL DNase-free RNase A in PBS and stored at 4 °C in the dark for at least 30 min. For each sample, the mean fluorescence of PI (maximum excitation of PI bound to DNA at 536 nm; emission at 617 nm) in 50,000 cells was measured using a BD Accuri^TM C6 flow cytometer FL2 channel (BD Biosciences, Milan, Italy) and deconvolution of the DNA content frequency histograms, to estimate the proportions of cells in the respective phases of the cycle, was made by Modfit 4.1 software (Verity Software House, Topsham, ME, USA).

[4] = test system: ROS in H69 noncancerous cholangiocytes; assay: Intracellular ROS determination (DCFH-DA); format: cell-based; details: H69, 24 h, β-caryophyllene 50 µM, doxorubicin 20 µM
Description: To perform the assay, the cells, seeded in 6-well plates (1 × 10^6 cells/well), were treated with the tested substances (β-caryophyllene, 50 µM; doxorubicin, 20 µM) for the required time exposure, then the ROS levels were measured in the pellets by the 2,7-dichlorofluorescein diacetate assay (DCFH-DA), as previously reported. […] In each experiment, a vehicle control, corresponding to a basal ROS level, were included too. For all the treatments, the mean DCF fluorescence of 50,000 cells was determined by a BD Accuri^TM C6 Software version 1.0.264.21 (BD Biosciences, Milan, Italy).

[5] = test system: Mz-ChA-1 cholangiocarcinoma cells
Description: (§3) To perform the assay, the cells were grown for 24 h into 96-well microplates (2 × 10^4 cells/well), then treated with the test substances and incubated according to the applied protocol schedule [26]. At the end of incubation, the cytotoxicity was measured by the 3-[4,5-dimethylthiazol-2-yl] -2,5-diphenyl tetrazolium bromide (MTT) assay, using an Epoch Microplate Spectrophotometer (BioTek, AHSI, Milan Italy). At least three biologic replicates, in which each concentration was tested in triplicate, were made. Comparing the number of viable cells in each treatment respect to the vehicle control allows to measure a cell viability reduction. The effect of the treatment was considered as cytotoxic when at least a 30% lowering of cell viability occurred [59].
(§4) In the single long-term schedule, confluence cells were exposed to the test substances for 24 h and 72 h (Figure S1), then the cytotoxicity was measured by the MTT assay. Under the metronomic treatment, the cells were subjected to a short and/or repeated exposure of 2 h to the test substances (Figure S2), as follow: 1) single treatment, the cells were treated for 2 h, then washed and incubated for 72 h; 2) two-repeated treatments, the cells were exposed to the test substances for 2 h, then washed and incubated for functional recovery for further 2 h. After recovering, the cells were further treated with the test substances for 2 h, washed and incubated for 72 h. Finally, the cytotoxicity was measured by the MTT assay as described above.
(§5) The type of interaction between β-caryophyllene and doxorubicin, i.e., synergy, additivity or antagonism, was evaluated by measuring three parameters: reversal ratio value (RR), combination index (CI) and isobolographic analysis (IB) [24].
(§6) RR represents the cytotoxicity enhancement ratio and allows to quantify the efficacy increase of a drug (A) in the presence of a chemosensitizing agent (B), by relating the IC50 of A alone (CA) and that of IC50 of its combination with B (CA+B).
(§7) CI gives a quantitative measure of the interaction and is calculated as follow: (CA,X/ICX,A) + (CB, X/ICX,B), in which CA,X and CB,X are the concentrations of A and B at the IC50 value of their combination, whereas ICX,A and ICX,B are the IC50 values of the substances alone. When the CI value was equal to, less or higher than 1, the interaction between test substances was evaluated as additivity, synergism and antagonism, respectively.
(§8) The isobolographic analysis, displaying the extent of the interaction between drug A and the potential chemosensitizer B, was obtained by a two-coordinate plot, wherein the IC50 concentrations of A and B were plotted on the x and y axes, corresponding to (CA, 0) and (C0, B), respectively. The substance concentrations used in the combination (CA+B) were placed in the same plot. A nonlinear regression analysis was carried out by GraphPad Prism™ 6.00 software, in order to connect the IC50 value of each drug alone and that of the combination, whereas the line connecting CA and CB represented an additive interaction. A synergism between A and B occurred when CA+B were located below the line, while the interaction was antagonistic when the values were above the line [60].

[6] = test system: Mz-ChA-1 cholangiocarcinoma cells; assay: Annexin-V-FITC fluorescence microscopy, semiquantitative; format: cell-based, human; details: Mz-ChA-1, 24 h, β-caryophyllene 50 µM, doxorubicin 20 µM
Description: as §1

[7] = test system: Mz-ChA-1 cholangiocarcinoma cells; assay: Cell cycle analysis (PI flow cytometry); format: cell-based, human; details: Mz-ChA-1, 24 h
Description: as §2

[8] = test system: γH2AX in H69 noncancerous cholangiocytes; assay: Western blotting of phosphorylated H2AX (Ser139); format: cell-based; details: for increase of γH2AX with respect to control: doxorubicin 20 µM
Description: (§9) To perform the analysis, the cells were seeded in 6-well plates, then subjected to the treatment with β-caryophyllene (50 µM) and doxorubicin (20 µM), alone and in combination, for the required time exposure, then harvested by centrifugation and washed in PBS. A lysis buffer, containing SDS (2% w/w), Tris-hydrochloride (20 mM; pH 7.4), urea (2 M), glycerol (10% w/w), sodium orthovanadate (2 mM), DTT (10 mM) and a protease inhibitors cocktail (1:100 dilution) was used to achieve the cell protein separation. The separated proteins were resolved by SDS-PAGE 10% TGX FastCast™ Acrylamide gel (BioRad, Segrate, Italy) and transferred on PVDF membranes (BioRad, Segrate, Italy) by using a Trans-Blot® Turbo™ Transfer System (BioRad, Segrate, Italy). The membranes were blocked with a 0.2% w/v I-block (Thermo Fisher Scientific, Rodano, Italy) in Tris-buffered saline containing 0.05% Tween-20 (TBS-T), then stained with the desired primary antibodies. […] After rinsing three times in TBS-T to remove unbound primary antibody, the membranes were incubated for an additional hour with the appropriate horseradish peroxidase- or alkaline phosphatase-conjugated secondary antibody (Jackson ImmunoResearch, Pero, Italy). […] Each experiment was performed at least in three replicates.

[9] = test system: phospho(Tyr705)-STAT3 in Mz-ChA-1 cells; assay: Western blotting of phospho(Tyr705)-STAT3; format: cell-based, human; details: for increase of phospho(Tyr705)-STAT3 compared the control: β-caryophyllene 50 µM, doxorubicin 20 µM
Description: as §9

[10] = test system: Mz-ChA-1 cholangiocarcinoma cells; assay: cells; details: Homo sapiens, combination with 50 µM β-caryophyllene
Description: as §3, §4, §5, §6, §7, §8

[11] = β-caryophyllene 50 µM, doxorubicin 20 µM
[12] = 24 h, read-out: IC50 (CL), Mz-ChA-1, 24 h exposure
[13] = 72 h, read-out: IC50 (CL), Mz-ChA-1, 72 h exposure
[14] = read-out: IC50 (CL), Mz-ChA-1, double repeated 2 h exposure + 72 h recovery
[15] = read-out: IC50 (CL), Mz-ChA-1, single 2 h exposure + 72 h recovery

SMILES: C=C1CC/C=C(\C)CC[C@@H]2[C@@H]1CC2(C)C [β-Caryophyllene, β-caryophyllene]
- change in GSSG ([1]; Mz-ChA-1, 24 h): without changes in GSSG
- increase of GSH levels vs. control ([1]; Mz-ChA-1, 24 h, β-caryophyllene 50 µM): about 2.5 fold
- increase of GSH/GSSG ratio ([1]; Mz-ChA-1, β-caryophyllene alone): about 2 fold
- inhibition of viable cells (CF fluorescence) [2]: about 1.2 fold
- lowering of basal apoptosis (annexin-V-Cy3) ([2]; H69, both time exposures, β-caryophyllene 50 µM): 1.2 fold
- reduction of G2/M phase vs. control ([3]; β-caryophyllene 50 µM): about 1.4 fold
- enhancement in ROS amount compared the control [4]: 1.3 fold
- fold more toxic after 72 h with respect to the other schedules (IC50 comparison) ([5]; Mz-ChA-1): 1.4- to 2 fold
- reduction of cell viability ([5]; Mz-ChA-1, 50 μM): lower than 20%
- inhibition of cell viability vs. control ([5]; Mz-ChA-1, concentrations higher than 50 μM, 24 h and 72 h): about 20%
- nontoxic up to (concentration) ([5]; Mz-ChA-1, metronomic schedule): up to 125 μM
- Annexin V Mz-ChA-1 (semiquantitative apoptosis score) [6]: +/- (6%–10% = +/−)
- increase in G0/G1 phase vs. control ([7]; β-caryophyllene 50 µM): about 1.2 fold
- increase in G2/M phase vs. control [7, 11]: about 1.5 fold
- effect on γH2AX levels ([8]; H69, 50 µM, 2 h and 24 h): null effects
- increase of phospho(Tyr705)-STAT3 compared the control ([9]; Mz-ChA-1, 2 h): ≥ 3 fold
- increase of phospho(Tyr705)-STAT3 compared the control ([9]; Mz-ChA-1, 24 h): ≥ 3 fold
- IC50 [10, 12]: 124 µM
- IC50 [10, 13]: 90 µM
- IC50 [10, 14]: 140 µM
- IC50 [10, 15]: 172 µM

SMILES: COc1cccc2c1C(=O)c1c(O)c3c(c(O)c1C2=O)C[C@@](O)(C(=O)CO)C[C@@H]3O[C@H]1C[C@H](N)[C@H](O)[C@H](C)O1 [Doxorubicin, doxorubicin hydrochloride]
- lowering of GSH/GSSG ratio ([1]; Mz-ChA-1, 2 h): 1.3 fold
- change in GSH ([1]; Mz-ChA-1, 2 h, doxorubicin 20 µM): not significantly decreased
- change in GSSG ([1]; Mz-ChA-1, 24 h): without changes in the GSSG amount
- lowering of GSH/GSSG ratio ([1]; Mz-ChA-1, 24 h): 4 fold
- reduction of GSH ([1]; Mz-ChA-1, 24 h, doxorubicin 20 µM): at least 3 fold
- inhibition of viable cells (CF fluorescence) [2]: ≤ 1.4 fold
- increase of apoptotic rate ([2]; H69, 24 h, doxorubicin 20 µM): ~1.5 fold
- increase of cell accumulation in S-phase compared the control ([3]; doxorubicin 20 µM): ~1.8 fold
- reduction of G0/G1 phase ([3]; doxorubicin 20 µM): ≥ 30 fold
- enhancement in ROS amount compared the control [4]: at least 3 fold
- cytotoxicity increase produced by the double repeated exposure [5]: 10%
- IC50 lowering, double repeated 2 h metronomic vs 24 h protocol ([5]; Mz-ChA-1): ~2.4 fold
- IC50 lowering, single 2 h metronomic vs 24 h protocol ([5]; Mz-ChA-1): about 1.4 fold
- IC50 reduction, double short exposure vs single 2 h treatment ([5]; Mz-ChA-1): 1.7 fold
- anticancer power under metronomic conditions lower than after 72 h ([5]; Mz-ChA-1): 3- to 5 fold
- potency increase, 72 h with respect to 24 h (IC50 comparison) ([5]; Mz-ChA-1): at least 7 fold
- inhibition of cell viability ([5]; Mz-ChA-1, 1 µM, 72 h): about 20%
- inhibition of cell viability ([5]; Mz-ChA-1, 10 μM, 2 h exposure protocol): ≥ 35%
- inhibition of cell viability ([5]; Mz-ChA-1, 10 µM, 24 h): about 20%
- inhibition of cell viability ([5]; Mz-ChA-1, 10 µM, 72 h): about 80%
- maximum inhibition of cell viability ([5]; Mz-ChA-1, 100 μM, both metronomic schedules): 80%
- maximum inhibition of cell viability ([5]; Mz-ChA-1, 200 µM, 24 h): about 80%
- cell viability reduction vs. control ([5]; Mz-ChA-1, concentrations lower than 10 μM, 2 h exposure protocol): < 20%
- Annexin V Mz-ChA-1 (semiquantitative apoptosis score) [6]: + (11%–30% = +)
- increase of cell accumulation in S-phase compared the control ([7]; doxorubicin 20 µM): ~1.6 fold
- reduction of G0/G1 phase ([7]; doxorubicin 20 µM): at least 4 fold
- increase in G2/M phase vs. control [7, 11]: about 1.4 fold
- increase of γH2AX with respect to control ([8]; H69, 2 h): ~40 fold
- increase of γH2AX with respect to control ([8]; H69, 24 h): ~200 fold
- increase of phospho(Tyr705)-STAT3 compared the control ([9]; Mz-ChA-1, 2 h): ~100 fold
- increase of phospho(Tyr705)-STAT3 compared the control ([9]; Mz-ChA-1, 24 h): ~20 fold
- higher phospho(Tyr705)-STAT3 expression in Mz-ChA-1 with respect H69 cholangiocytes ([9]; doxorubicin-promoted, Mz-ChA-1 vs H69): ~10 fold
- IC50 [10, 12]: 27.8 µM
- IC50 [10, 13]: 3.8 µM
- IC50 [10, 14]: 11.6 µM
- IC50 [10, 15]: 19.8 µM
